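Method: 48-hour compound exposure of cells in 96-well plates, five concentrations, linear interpolation of endpoints. Here, GI50 denotes the concentration required for 50% inhibition of growth.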 Activity calls are given as the source filed them. No stated cut-off is given here; in the data, active = GI50 up to about 1.1 µM and inactive = higher.
Tests used:
Assay in all cases: DTP human tumour cell line panel, 48 h
EKVX = system: EKVX
Hs-578T = system: Hs-578T
CAKI-1 = system: CAKI-1
A549 = system: A549
NCI-H522 = system: NCI-H522
SF-268 = system: SF-268
HOP-92 = system: HOP-92
SNB-19 = system: SNB-19
MDA-N = system: MDA-N
PC-3 = system: PC-3
SK-MEL-2 = system: SK-MEL-2
OVCAR-8 = system: OVCAR-8
NCI-H226 = system: NCI-H226
UACC-62 = system: UACC-62
SNB-75 = system: SNB-75
OVCAR-3 = system: OVCAR-3
SW-620 = system: SW-620
NCI/ADR-RES = system: NCI/ADR-RES
HT-29 = system: HT-29
MDA-MB-435 = system: MDA-MB-435
RPMI-8226 = system: RPMI-8226
LOX IMVI = system: LOX IMVI
OVCAR-5 = system: OVCAR-5
HCT-15 = system: HCT-15
TK-10 = system: TK-10
SK-OV-3 = system: SK-OV-3
HCC 2998 = system: HCC 2998
SR = system: SR
MDA-MB-231 = system: MDA-MB-231
MOLT-4 = system: MOLT-4
HOP-62 = system: HOP-62
786-0 = system: 786-0
A498 = system: A498
NCI-H23 = system: NCI-H23
UACC-257 = system: UACC-257
ACHN = system: ACHN
M14 = system: M14
IGROV-1 = system: IGROV-1
HL-60 = system: HL-60
SF-295 = system: SF-295
K562 = system: K562
COLO 205 = system: COLO 205
BT-549 = system: BT-549
CCRF-CEM = system: CCRF-CEM
SK-MEL-5 = system: SK-MEL-5
T47D = system: T47D
HCT-116 = system: HCT-116
U-251 = system: U-251
NCI-H460 = system: NCI-H460
Malme-3M = system: Malme-3M
SF-539 = system: SF-539
OVCAR-4 = system: OVCAR-4
SK-MEL-28 = system: SK-MEL-28
UO-31 = system: UO-31
MCF7 = system: MCF7
RXF 393 = system: RXF 393
KM12 = system: KM12
SN12C = system: SN12C
DU-145 = system: DU-145

## CNC(=S)NN=C1NCCCN1
EKVX
  GI50: > 100 µM (inactive)
Hs-578T
  GI50: > 100 µM (inactive)
CAKI-1
  GI50: > 100 µM (inactive)
A549
  GI50: > 100 µM (inactive)
NCI-H522
  GI50: > 100 µM (inactive)
SF-268
  GI50: > 100 µM (inactive)
HOP-92
  GI50: > 100 µM (inactive)
SNB-19
  GI50: > 100 µM (inactive)
MDA-N
  GI50: > 100 µM (inactive)
PC-3
  GI50: > 100 µM (inactive)
SK-MEL-2
  GI50: > 100 µM (inactive)
OVCAR-8
  GI50: > 100 µM (inactive)
NCI-H226
  GI50: > 100 µM (inactive)
UACC-62
  GI50: > 100 µM (inactive)
SNB-75
  GI50: > 100 µM (inactive)
OVCAR-3
  GI50: > 100 µM (inactive)
SW-620
  GI50: > 100 µM (inactive)
NCI/ADR-RES
  GI50: > 100 µM (inactive)
HT-29
  GI50: > 100 µM (inactive)
MDA-MB-435
  GI50: > 100 µM (inactive)
RPMI-8226
  GI50: > 100 µM (inactive)
LOX IMVI
  GI50: > 100 µM (inactive)
OVCAR-5
  GI50: > 100 µM (inactive)
HCT-15
  GI50: > 100 µM
TK-10
  GI50: > 100 µM (inactive)
SK-OV-3
  GI50: > 100 µM (inactive)
HCC 2998
  GI50: > 100 µM (inactive)
SR
  GI50: > 100 µM (inactive)
MDA-MB-231
  GI50: > 100 µM (inactive)
MOLT-4
  GI50: > 100 µM (inactive)
HOP-62
  GI50: > 100 µM (inactive)
786-0
  GI50: > 100 µM (inactive)
A498
  GI50: > 100 µM (inactive)
NCI-H23
  GI50: > 100 µM (inactive)
UACC-257
  GI50: > 100 µM (inactive)
ACHN
  GI50: > 100 µM (inactive)
M14
  GI50: > 100 µM (inactive)
IGROV-1
  GI50: > 100 µM (inactive)
HL-60
  GI50: > 100 µM (inactive)
SF-295
  GI50: > 100 µM (inactive)
K562
  GI50: > 100 µM (inactive)
COLO 205
  GI50: > 100 µM (inactive)
BT-549
  GI50: > 100 µM (inactive)
CCRF-CEM
  GI50: > 100 µM (inactive)
SK-MEL-5
  GI50: > 100 µM (inactive)
T47D
  GI50: > 100 µM (inactive)
HCT-116
  GI50: > 100 µM (inactive)
U-251
  GI50: > 100 µM (inactive)
NCI-H460
  GI50: > 100 µM (inactive)
Malme-3M
  GI50: > 100 µM (inactive)
SF-539
  GI50: > 100 µM (inactive)
OVCAR-4
  GI50: > 100 µM (inactive)
SK-MEL-28
  GI50: > 100 µM (inactive)
UO-31
  GI50: > 100 µM (inactive)
MCF7
  GI50: > 100 µM (inactive)
RXF 393
  GI50: > 100 µM (inactive)
KM12
  GI50: > 100 µM (inactive)

## O=C1c2ccccc2C(=O)c2c(NC(=O)C3CC3)ccc(NC(=O)C3CC3)c21
EKVX
  GI50: > 100 µM (inactive)
Hs-578T
  GI50: > 100 µM (inactive)
A549
  GI50: > 100 µM (inactive)
NCI-H522
  GI50: 65.8 µM (inactive)
SNB-19
  GI50: > 100 µM (inactive)
MDA-N
  GI50: > 100 µM (inactive)
PC-3
  GI50: > 100 µM (inactive)
SK-MEL-2
  GI50: > 100 µM (inactive)
OVCAR-8
  GI50: > 100 µM (inactive)
UACC-62
  GI50: 26.9 µM (inactive)
OVCAR-3
  GI50: > 100 µM (inactive)
SW-620
  GI50: > 100 µM (inactive)
NCI/ADR-RES
  GI50: > 100 µM (inactive)
HT-29
  GI50: > 100 µM (inactive)
MDA-MB-435
  GI50: > 100 µM (inactive)
RPMI-8226
  GI50: > 100 µM (inactive)
LOX IMVI
  GI50: > 100 µM (inactive)
OVCAR-5
  GI50: > 100 µM (inactive)
HCT-15
  GI50: > 100 µM
TK-10
  GI50: > 100 µM (inactive)
HCC 2998
  GI50: > 100 µM (inactive)
SR
  GI50: > 100 µM (inactive)
MDA-MB-231
  GI50: > 100 µM (inactive)
MOLT-4
  GI50: > 100 µM (inactive)
HOP-62
  GI50: > 100 µM (inactive)
786-0
  GI50: 61.7 µM (inactive)
A498
  GI50: > 100 µM (inactive)
NCI-H23
  GI50: > 100 µM (inactive)
UACC-257
  GI50: > 100 µM (inactive)
ACHN
  GI50: 58.2 µM (inactive)
SN12C
  GI50: > 100 µM (inactive)
IGROV-1
  GI50: > 100 µM (inactive)
HL-60
  GI50: 95.7 µM (inactive)
SF-295
  GI50: 33.4 µM (inactive)
K562
  GI50: > 100 µM (inactive)
COLO 205
  GI50: > 100 µM (inactive)
BT-549
  GI50: > 100 µM (inactive)
SK-MEL-5
  GI50: > 100 µM (inactive)
T47D
  GI50: > 100 µM (inactive)
HCT-116
  GI50: > 100 µM (inactive)
U-251
  GI50: 91.2 µM (inactive)
NCI-H460
  GI50: > 100 µM (inactive)
Malme-3M
  GI50: 61.2 µM (inactive)
SF-539
  GI50: > 100 µM (inactive)
SK-MEL-28
  GI50: > 100 µM (inactive)
UO-31
  GI50: > 100 µM (inactive)
MCF7
  GI50: 83.2 µM (inactive)
KM12
  GI50: > 100 µM (inactive)

## Cc1ccc([N+](=O)[O-])cc1S(=O)(=O)Nc1ccc(C2=NNC(c3cccs3)C2)cc1 (stereo unspecified)
EKVX
  GI50: 18.8 µM (inactive)
Hs-578T
  GI50: 58.2 µM (inactive)
CAKI-1
  GI50: 30.5 µM (inactive)
A549
  GI50: 22.9 µM (inactive)
NCI-H522
  GI50: 24.7 µM (inactive)
SF-268
  GI50: 36.8 µM (inactive)
HOP-92
  GI50: 60 µM (inactive)
SNB-19
  GI50: 28.8 µM (inactive)
MDA-N
  GI50: 34.9 µM (inactive)
PC-3
  GI50: 33.3 µM (inactive)
SK-MEL-2
  GI50: 33.7 µM (inactive)
OVCAR-8
  GI50: 54.2 µM (inactive)
NCI-H226
  GI50: 49.7 µM (inactive)
UACC-62
  GI50: 14.5 µM (inactive)
SNB-75
  GI50: 31.3 µM (inactive)
OVCAR-3
  GI50: 12.6 µM (inactive)
SW-620
  GI50: 34.1 µM (inactive)
NCI/ADR-RES
  GI50: 26.5 µM (inactive)
HT-29
  GI50: 29.9 µM (inactive)
MDA-MB-435
  GI50: 35.6 µM (inactive)
RPMI-8226
  GI50: 16.6 µM (inactive)
LOX IMVI
  GI50: 28.7 µM (inactive)
OVCAR-5
  GI50: 58.9 µM (inactive)
HCT-15
  GI50: 17 µM
SK-OV-3
  GI50: 20.7 µM (inactive)
HCC 2998
  GI50: 30.8 µM (inactive)
SR
  GI50: 20 µM (inactive)
MOLT-4
  GI50: 13.7 µM (inactive)
HOP-62
  GI50: 24.3 µM (inactive)
786-0
  GI50: 31.3 µM (inactive)
A498
  GI50: 20.4 µM (inactive)
NCI-H23
  GI50: 22.2 µM (inactive)
UACC-257
  GI50: 26.9 µM (inactive)
ACHN
  GI50: 20.7 µM (inactive)
SN12C
  GI50: 29.2 µM (inactive)
M14
  GI50: 25.5 µM (inactive)
IGROV-1
  GI50: 58.9 µM (inactive)
HL-60
  GI50: 0.0627 µM (active)
SF-295
  GI50: 6.67 µM (inactive)
K562
  GI50: 17.4 µM (inactive)
COLO 205
  GI50: 6.87 µM (inactive)
BT-549
  GI50: 23.2 µM (inactive)
CCRF-CEM
  GI50: 20.2 µM (inactive)
SK-MEL-5
  GI50: 17.4 µM (inactive)
T47D
  GI50: 4.85 µM (inactive)
HCT-116
  GI50: 22.5 µM (inactive)
DU-145
  GI50: 30.3 µM (inactive)
NCI-H460
  GI50: 25.4 µM (inactive)
Malme-3M
  GI50: 23.4 µM (inactive)
SF-539
  GI50: 48.1 µM (inactive)
OVCAR-4
  GI50: 22 µM (inactive)
SK-MEL-28
  GI50: 48.5 µM (inactive)
UO-31
  GI50: 5.32 µM (inactive)
MCF7
  GI50: 13.7 µM (inactive)
RXF 393
  GI50: 13.6 µM (inactive)
KM12
  GI50: 16.5 µM (inactive)

— ChEMBL document CHEMBL1201862, “PubChem BioAssay data set” (2004)
